Source: patent publication US20260226006A1, “INDOLE COMPOUND, PREPARATION METHOD THEREFOR AND USE THEREOF” (SUZHOU MERNA THERAPEUTICS CO. LTD, priority 2023, published 2026)

Columns and labels:
HaCat cells = assay: m6A methylation level of human HaCat keratinocytes, EpiQuik m6A RNA methylation quantification kit (Example 20); assay type: cell-based; conditions: for abnormal increase in the RNA m6A level of human keratinocytes caused by chemotherapeutic drugs and multikinase inhibitors: 400 nM compound after 50 nM drug; for m6A fold change relative to control group 1: HaCat cells, 24 hours
Procedure: HaCat cells were cultured in a DMEM culture medium containing 10% fetal bovine serum, 100 U/mL penicillin, and 100 μg/mL streptomycin. Culture dishes were placed in an incubator containing 5% CO2 for culture at 37° C. for 24 hours. An equal volume of DMSO was added in control group 1, 50 nM sorafenib, capecitabine, docetaxel, and osimertinib were respectively added in control groups A, B, C, and D, and 400 nM test compounds or nicotinamide were respectively added in sample groups A1-17, B1-17, C1-17, and D1-17 after the addition of 50 nM corresponding compounds. The cells were continuously cultured for 24 hours, washed with PBS, and then collected by high-speed centrifugation. Total RNA was extracted using a Trizol reagent (Sigma Aldrich), and RNA m6A methylation of a sample was quantitatively detected using an EpiQuik m6A RNA methylation quantification kit. The concentrations of positive control samples for a standard curve were 0.01 ng/μl, 0.02 ng/μl, 0.05 ng/μl, 0.1 ng/μl, 0.2 ng/μl, and 0.5 ng/μl. The absorbance at 450 nm was read using a microplate reader (Tecan GENios). A quantitative calculation formula for m6A is as follows:
m6A (ng)=(absorbance of sample well−absorbance of background well)/slope of standard curve m6A (%)=m6A (ng)/RNA amount of sample (ng)*100%.

paw plantar skin of rats = assay: Rat models with hand-foot skin reaction, topical ointment (Example 22); assay type: in vivo, SD rats; conditions: for Incidence rate: 30 days; for incidence rate of hand-foot skin reaction at a drug application site: compounds at a mass content of 1% in ointment; for incidence rate of hand-foot skin reaction in all paws of the rats: compounds at mass contents of 3% and 10% in ointment; for formation of blisters, inflammatory cell infiltration in the dermis and skin congestion (pathological scoring) / formation of blisters, inflammatory cell infiltration in the dermis and skin congestion (tissue staining): paw plantar skin of modeled rats; for formation of blisters, inflammatory cell infiltration in the dermis and skin congestion (pathological scoring) / stratum corneum thickness of the paw plantar skin of the modeled rats / formation of blisters, inflammatory cell infiltration in the dermis and skin congestion (tissue staining): topical ointment; for differentiation of keratinocytes both in vitro and in vivo: summary of Examples 21 and 22
Procedure: After adaptive feeding for one week, SD rats (with a body weight of approximately 200 g) were randomly divided into groups according to the body weight, with 12 rats in each group. Modeling drugs (including sorafenib, erlotinib, afatinib, and osimertinib) were respectively dissolved in a solution containing 5% of DMSO, 45% of PEG400, and 50% of H2O, and the modeling drugs were diluted to required concentrations and then administered once daily by gavage at doses shown in Table 3. After administration by gavage for 1 hour, 0.05 g of ointments containing different mass proportions of test compounds were evenly applied to left paws of the rats, a blank matrix ointment was applied to right paws of the rats to serve as a self-control, and no ointment was applied to the rats in a blank control group. After drug application, four limbs were continuously immobilized for 2 hours, then wiped with clean water to remove the residual drugs, removed from immobilization, and restored to free movement. The modeling drugs, the blank matrix ointment, and the ointments containing the test compounds were all administered once daily. After continuous administration for 30 days, the rats were euthanized, and paw plantar skin tissues were collected, fixed in 10% neutral formalin, […]. The ointments for the test compounds were prepared by mixing the compounds, white beeswax, white petrolatum, and light liquid paraffin in specific ratios (weight ratios of 3 ointments were respectively 1:18:58:23, 3:18:57:22, and 10:20:40:30). The blank matrix ointment was prepared by mixing white beeswax, white petrolatum, and light liquid paraffin in a specific ratio (weight ratio of 18:60:22).
Tissue staining: After dewaxing and rehydration, the paw plantar skin tissue sections of the above rats were stained in a hematoxylin solution for several minutes, cleaned, and placed in 1% acid alcohol for soaking until the sections faded to light blue-red. After cleaning with running water for 5 minutes, the sections were stained with eosin for 2-3 minutes, cleaned to remove excess dyes, dehydrated, then permeabilized by adding xylene for several minutes, and sealed and fixed with a neutral resin. The stratum corneum was observed under an optical microscope, and the thickness of the epidermal stratum corneum was measured using Dmetrix software.
Immunohistochemical staining: After dewaxing and hydration, the paw plantar skin tissue sections of the above rats were incubated with 3% H2O2 at room temperature for 30 minutes and blocked with 10% goat serum for 30 minutes after antigen retrieval. A KRT1 antibody (Abcam, ab93652) and a Loricrin antibody (Abcam, ab183646) were added dropwise, the sections were incubated overnight at 4° C., and an HRP secondary antibody (ZSGB-BIO, PV-6001) and a DAB kit (ZSG-BIO, ZLI9017) were added for color development. The sections were re-stained with hematoxylin, cleaned, and sealed and fixed with a neutral resin, and the expression amounts of KRT1 and Loricrin were observed under an optical microscope.
An incidence rate calculation method involves a proportion of animals in each group meeting the above criteria for determining successful modeling, that is, incidence rate=(number of successfully modeled rats/total number of rats in the group)*100%. […]

[1] = 50 nM capecitabine + 400 nM test compound
[2] = 50 nM docetaxel + 400 nM test compound
[3] = 50 nM osimertinib + 400 nM test compound
[4] = 50 nM sorafenib + 400 nM test compound
[5] = afatinib 50 mg/kg, 1% compound ointment on left paw, left paw
[6] = afatinib 50 mg/kg, 1% compound ointment on left paw, right paw (blank matrix ointment)
[7] = afatinib 50 mg/kg, 3% compound ointment on left paw, left paw
[8] = afatinib 50 mg/kg, 3% compound ointment on left paw, right paw (blank matrix ointment)
[9] = afatinib 50 mg/kg, 10% compound ointment on left paw, left paw
[10] = afatinib 50 mg/kg, 10% compound ointment on left paw, right paw (blank matrix ointment)
[11] = erlotinib 70 mg/kg, 1% compound ointment on left paw, left paw
[12] = erlotinib 70 mg/kg, 1% compound ointment on left paw, right paw (blank matrix ointment)
[13] = erlotinib 70 mg/kg, 3% compound ointment on left paw, left paw
[14] = erlotinib 70 mg/kg, 3% compound ointment on left paw, right paw (blank matrix ointment)
[15] = erlotinib 70 mg/kg, 10% compound ointment on left paw, left paw
[16] = erlotinib 70 mg/kg, 10% compound ointment on left paw, right paw (blank matrix ointment)
[17] = osimertinib 60 mg/kg, 1% compound ointment on left paw, left paw
[18] = osimertinib 60 mg/kg, 1% compound ointment on left paw, right paw (blank matrix ointment)
[19] = osimertinib 60 mg/kg, 3% compound ointment on left paw, right paw (blank matrix ointment)
[20] = osimertinib 60 mg/kg, 10% compound ointment on left paw, left paw
[21] = osimertinib 60 mg/kg, 10% compound ointment on left paw, right paw (blank matrix ointment)
[22] = sorafenib 100 mg/kg, 1% compound ointment on left paw, left paw
[23] = sorafenib 100 mg/kg, 1% compound ointment on left paw, right paw (blank matrix ointment)
[24] = sorafenib 100 mg/kg, 3% compound ointment on left paw, left paw
[25] = sorafenib 100 mg/kg, 3% compound ointment on left paw, right paw (blank matrix ointment)
[26] = sorafenib 100 mg/kg, 10% compound ointment on left paw, left paw
[27] = sorafenib 100 mg/kg, 10% compound ointment on left paw, right paw (blank matrix ointment)
[28] = osimertinib 60 mg/kg, 3% compound ointment on left paw, left paw

SMILES	abnormal increase in the RNA m6A level of human keratinocytes caused by chemotherapeutic drugs and multikinase inhibitors (HaCat cells)	m6A fold change relative to control group 1 (HaCat cells; [1])	m6A fold change relative to control group 1 (HaCat cells; [2])	m6A fold change relative to control group 1 (HaCat cells; [3])	m6A fold change relative to control group 1 (HaCat cells; [4])	Incidence rate (paw plantar skin of rats; [5])	Incidence rate (paw plantar skin of rats; [6])	Incidence rate (paw plantar skin of rats; [7])	Incidence rate (paw plantar skin of rats; [8])	Incidence rate (paw plantar skin of rats; [9])	Incidence rate (paw plantar skin of rats; [10])	incidence rate of hand-foot skin reaction at a drug application site (paw plantar skin of rats)	incidence rate of hand-foot skin reaction in all paws of the rats (paw plantar skin of rats)	Incidence rate (paw plantar skin of rats; [11])	Incidence rate (paw plantar skin of rats; [12])	Incidence rate (paw plantar skin of rats; [13])	Incidence rate (paw plantar skin of rats; [14])	Incidence rate (paw plantar skin of rats; [15])	Incidence rate (paw plantar skin of rats; [16])	Incidence rate (paw plantar skin of rats; [17])	also measured
NC(=O)C1CCCc2c1[nH]c1ccc(Cl)cc21 (centres unmarked) [Compound 2, 6-chloro-2,3,4,9-tetrahydro-1H-carbazole-1-carboxamide]	effectively inhibit	2.3	3.3	2.2	2.4	2/12 (17%)	7/12 (58%)	2/12 (17%)	5/12 (42%)	1/12 (8%)	5/12 (42%)	significantly decrease	significantly decrease	3/12 (25%)	10/12 (83%)	2/12 (17%)	4/12 (33%)	1/12 (8%)	4/12 (33%)	2/12 (17%)	Incidence rate (paw plantar skin of rats; [18]): 9/12 (75%); Incidence rate (paw plantar skin of rats; [19]): 4/12 (33%); Incidence rate (paw plantar skin of rats; [20]): 0/12 (0%); Incidence rate (paw plantar skin of rats; [21]): 3/12 (25%); formation of blisters, inflammatory cell infiltration in the dermis and skin congestion (pathological scoring) (paw plantar skin of rats): effectively improve; Incidence rate (paw plantar skin of rats; [22]): 3/12 (25%); Incidence rate (paw plantar skin of rats; [23]): 8/12 (67%); Incidence rate (paw plantar skin of rats; [24]): 1/12 (8%); Incidence rate (paw plantar skin of rats; [25]): 5/12 (42%); Incidence rate (paw plantar skin of rats; [26]): 0/12 (0%); Incidence rate (paw plantar skin of rats; [27]): 5/12 (42%); differentiation of keratinocytes both in vitro and in vivo (paw plantar skin of rats): effectively inhibit; stratum corneum thickness of the paw plantar skin of the modeled rats (paw plantar skin of rats): effectively decrease
NC(=O)[C@H]1CCCc2c1[nH]c1ccc(Cl)cc21 [Compound 2b, (S)-6-chloro-2,3,4,9-tetrahydro-1H-carbazole-1-carboxamide]	effectively inhibit	1.1	1.0	1.2	1.4	3/12 (25%)	9/12 (75%)	2/12 (17%)	4/12 (33%)	0/12 (0%)	3/12 (25%)	significantly decrease	significantly decrease	3/12 (25%)	10/12 (83%)	2/12 (17%)	5/12 (42%)	1/12 (8%)	4/12 (33%)	2/12 (17%)	Incidence rate (paw plantar skin of rats; [18]): 8/12 (67%); Incidence rate (paw plantar skin of rats; [28]): 2/12 (17%); Incidence rate (paw plantar skin of rats; [19]): 4/12 (33%); Incidence rate (paw plantar skin of rats; [20]): 0/12 (0%); Incidence rate (paw plantar skin of rats; [21]): 3/12 (25%); formation of blisters, inflammatory cell infiltration in the dermis and skin congestion (pathological scoring) (paw plantar skin of rats): effectively improve; formation of blisters, inflammatory cell infiltration in the dermis and skin congestion (tissue staining) (paw plantar skin of rats): effectively improve; Incidence rate (paw plantar skin of rats; [22]): 2/12 (17%); Incidence rate (paw plantar skin of rats; [23]): 9/12 (75%); Incidence rate (paw plantar skin of rats; [24]): 2/12 (17%); Incidence rate (paw plantar skin of rats; [25]): 4/12 (33%); Incidence rate (paw plantar skin of rats; [26]): 0/12 (0%); Incidence rate (paw plantar skin of rats; [27]): 4/12 (33%); differentiation of keratinocytes both in vitro and in vivo (paw plantar skin of rats): effectively inhibit; stratum corneum thickness of the paw plantar skin of the modeled rats (paw plantar skin of rats): effectively decrease
NC(=O)C1c2[nH]c3ccc(Cl)cc3c2C2CCC1C2 [Compound 5a, (S)-2-chloro-5,6,7,8,9,10-hexahydro-7,10-methanocyclohepta[b]indole-6-carboxamide]	effectively inhibit	1.2	1.0	1.2	1.0	1/12 (8%)	9/12 (75%)	1/12 (8%)	4/12 (33%)	0/12 (0%)	1/12 (8%)	significantly decrease	significantly decrease	2/12 (17%)	9/12 (75%)	2/12 (17%)	5/12 (42%)	0/12 (0%)	0/12 (0%)	2/12 (17%)	Incidence rate (paw plantar skin of rats; [18]): 9/12 (75%); Incidence rate (paw plantar skin of rats; [28]): 1/12 (8%); Incidence rate (paw plantar skin of rats; [19]): 4/12 (33%); Incidence rate (paw plantar skin of rats; [20]): 0/12 (0%); Incidence rate (paw plantar skin of rats; [21]): 1/12 (8%); formation of blisters, inflammatory cell infiltration in the dermis and skin congestion (pathological scoring) (paw plantar skin of rats): effectively improve; formation of blisters, inflammatory cell infiltration in the dermis and skin congestion (tissue staining) (paw plantar skin of rats): effectively improve; Incidence rate (paw plantar skin of rats; [22]): 1/12 (8%); Incidence rate (paw plantar skin of rats; [23]): 10/12 (83%); Incidence rate (paw plantar skin of rats; [24]): 1/12 (8%); Incidence rate (paw plantar skin of rats; [25]): 5/12 (42%); Incidence rate (paw plantar skin of rats; [26]): 0/12 (0%); Incidence rate (paw plantar skin of rats; [27]): 2/12 (17%; differentiation of keratinocytes both in vitro and in vivo (paw plantar skin of rats): effectively inhibit; stratum corneum thickness of the paw plantar skin of the modeled rats (paw plantar skin of rats): effectively decrease
NC(=O)c1cccnc1 [Nicotinamide, nicotinamide]		4.5	5.4	5.0	4.7																
